Laboratory results reported in patent publication US9012651B2, “TRPV3 modulators” (AbbVie Inc., priority 2011, dated 2015).

Target: human TRPV3 receptors (Homo sapiens (Human), UniProt Q8NET8)
Experiment: Calcium flux assay (FLIPR TETRA), inhibition of the 2-APB response
Type: cell-based
Conditions: recombinant HEK293 cells stably expressing TRPV3, Calcium-4 dye, 2-APB at its EC80
Outline: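 HEK293 cells stably expressing human and mouse TRPV3, plated the day before and dye-loaded 90-120 min in the dark, read on FLIPR Tetra. Peak fluorescence increase over baseline was expressed as percent of the maximal 2-APB response without compound.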

human TRPV3 receptors, sequence (Q8NET8 whole entry): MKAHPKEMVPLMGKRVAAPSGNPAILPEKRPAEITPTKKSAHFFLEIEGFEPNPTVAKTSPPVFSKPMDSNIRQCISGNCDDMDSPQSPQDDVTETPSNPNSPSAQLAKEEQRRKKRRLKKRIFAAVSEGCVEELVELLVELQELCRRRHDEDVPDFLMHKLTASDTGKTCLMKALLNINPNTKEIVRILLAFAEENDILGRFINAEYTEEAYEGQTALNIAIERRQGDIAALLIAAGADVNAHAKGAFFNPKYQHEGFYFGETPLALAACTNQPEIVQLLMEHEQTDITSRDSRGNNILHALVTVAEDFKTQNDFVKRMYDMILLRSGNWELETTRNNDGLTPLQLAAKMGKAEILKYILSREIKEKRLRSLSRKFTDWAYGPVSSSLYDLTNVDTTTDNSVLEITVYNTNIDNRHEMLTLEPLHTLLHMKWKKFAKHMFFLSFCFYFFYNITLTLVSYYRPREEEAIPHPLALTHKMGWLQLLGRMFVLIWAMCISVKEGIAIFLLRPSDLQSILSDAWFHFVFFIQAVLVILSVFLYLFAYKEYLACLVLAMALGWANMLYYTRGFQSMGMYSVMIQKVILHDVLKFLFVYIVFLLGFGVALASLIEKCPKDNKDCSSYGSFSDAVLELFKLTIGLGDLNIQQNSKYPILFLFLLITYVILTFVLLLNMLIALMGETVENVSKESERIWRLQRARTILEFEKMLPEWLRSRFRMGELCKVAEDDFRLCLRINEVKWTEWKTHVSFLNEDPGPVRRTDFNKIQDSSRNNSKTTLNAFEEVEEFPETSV

| SMILES | IC50 [µM] |
| --- | --- |
| CCC[C@H](CO)NCc1ccnc(-c2ccc(C(F)(F)F)cc2)n1 [Example 141, (2R)-2-[({2-[4-(trifluoromethyl)phenyl]pyrimidin-4-yl}methyl)amino]pentan-1-ol] | 4.9 |
| CC(C)C[C@H](CO)NCc1ccnc(-c2ccc(C(F)(F)F)cc2)n1 [Example 142, (2R)-4-methyl-2-[({2-[4-(trifluoromethyl)phenyl]pyrimidin-4-yl}methyl)amino]pentan-1-ol] | 7.3 |
| CCC(C)C(CO)NCc1ccnc(-c2ccc(C(F)(F)F)cc2)n1 (stereo not drawn) [Example 143, 3-methyl-2-[({2-[4-(trifluoromethyl)phenyl]pyrimidin-4-yl}methyl)amino]pentan-1-ol] | 12.4 |
| COCC(CO)NCc1ccnc(-c2ccc(C(F)(F)F)cc2)n1 (stereo not drawn) [Example 144, 3-methoxy-2-[({2-[4-(trifluoromethyl)phenyl]pyrimidin-4-yl}methyl)amino]propan-1-ol] | 15.6 |
| OC[C@H](NCc1ccnc(-c2ccc(C(F)(F)F)cc2)n1)C1CC1 [Example 145, (2R)-2-cyclopropyl-2-[({2-[4-(trifluoromethyl)phenyl]pyrimidin-4-yl}methyl)amino]ethanol] | 3.05 |
| OC[C@H](NCc1ccnc(-c2ccc(C(F)(F)F)cc2)n1)C1CCCCC1 [Example 146, (2R)-2-cyclohexyl-2-[({2-[4-(trifluoromethyl)phenyl]pyrimidin-4-yl}methyl)amino]ethanol] | 8.65 |
| CC(C)(C)[C@H](CO)NCc1ccnc(-c2ccc(C(F)(F)F)cc2)n1 [Example 147, (2R)-3,3-dimethyl-2-[({2-[4-(trifluoromethyl)phenyl]pyrimidin-4-yl}methyl)amino]butan-1-ol] | 6.43 |
| CC(O)C(C)NCc1ccnc(-c2ccc(C(F)(F)F)cc2)n1 (stereo not drawn) [Example 148, 3-[({2-[4-(trifluoromethyl)phenyl]pyrimidin-4-yl}methyl)amino]butan-2-ol] | 1.87 |
| C[C@H](O)[C@H](CO)NCc1ccnc(-c2ccc(C(F)(F)F)cc2)n1 [Example 149, (2S,3S)-2-[({2-[4-(trifluoromethyl)phenyl]pyrimidin-4-yl}methyl)amino]butane-1,3-diol] | > 20 |
| C[C@@H](O)[C@@H](CO)NCc1ccnc(-c2ccc(C(F)(F)F)cc2)n1 [Example 150, (2R,3R)-2-[({2-[4-(trifluoromethyl)phenyl]pyrimidin-4-yl}methyl)amino]butane-1,3-diol] | 3.82 |
| C[C@H](O)[C@@H](CO)NCc1ccnc(-c2ccc(C(F)(F)F)cc2)n1 [Example 151, (2R,3S)-2-[({2-[4-(trifluoromethyl)phenyl]pyrimidin-4-yl}methyl)amino]butane-1,3-diol] | > 20 |
| C[C@@H](O)[C@H](CO)NCc1ccnc(-c2ccc(C(F)(F)F)cc2)n1 [Example 152, (2S,3R)-2-[({2-[4-(trifluoromethyl)phenyl]pyrimidin-4-yl}methyl)amino]butane-1,3-diol] | > 20 |
| OC[C@H](NCc1ccnc(-c2ccc(C(F)(F)F)cc2)n1)[C@@H](O)c1ccccc1 [Example 153, (1S,2S)-1-phenyl-2-[({2-[4-(trifluoromethyl)phenyl]pyrimidin-4-yl}methyl)amino]propane-1,3-diol] | 9.31 |
| OC[C@@H](NCc1ccnc(-c2ccc(C(F)(F)F)cc2)n1)[C@H](O)c1ccccc1 [Example 154, (1R,2R)-1-phenyl-2-[({2-[4-(trifluoromethyl)phenyl]pyrimidin-4-yl}methyl)amino]propane-1,3-diol] | > 20 |
| CC(C)[C@@H](CO)NCc1ccnc(-c2ccc(C(F)(F)F)cc2)n1 [Example 155, (2S)-3-methyl-2-[({2-[4-(trifluoromethyl)phenyl]pyrimidin-4-yl}methyl)amino]butan-1-ol] | > 20 |
| CC(C)(CO)CNCc1ccnc(-c2ccc(C(F)(F)F)cc2)n1 [Example 156, 2,2-dimethyl-3-[({2-[4-(trifluoromethyl)phenyl]pyrimidin-4-yl}methyl)amino]propan-1-ol] | > 20 |
| OCC1(CNCc2ccnc(-c3ccc(C(F)(F)F)cc3)n2)CCC1 [Example 157, (1-{[({2-[4-(trifluoromethyl)phenyl]pyrimidin-4-yl}methyl)amino]methyl}cyclobutyl)methanol] | > 20 |
| OCC1(CNCc2ccnc(-c3ccc(C(F)(F)F)cc3)n2)CCCC1 [Example 158, (1-{[({2-[4-(trifluoromethyl)phenyl]pyrimidin-4-yl}methyl)amino]methyl}cyclopentyl)methanol] | > 20 |
| OCC1(CNCc2ccnc(-c3ccc(C(F)(F)F)cc3)n2)CCCCC1 [Example 159, (1-{[({2-[4-(trifluoromethyl)phenyl]pyrimidin-4-yl}methyl)amino]methyl}cyclohexyl)methanol] | 17.6 |
| OCC1(CNCc2ccnc(-c3ccc(C(F)(F)F)cc3)n2)COC1 [Example 160] | > 20 |
| OCC1(CNCc2ccnc(-c3ccc(C(F)(F)F)cc3)n2)CCOCC1 [Example 161] | > 20 |
| OCC[C@@H](NCc1ccnc(-c2ccc(C(F)(F)F)cc2)n1)c1ccccc1 [Example 162, (3R)-3-phenyl-3-[({2-[4-(trifluoromethyl)phenyl]pyrimidin-4-yl}methyl)amino]propan-1-ol] | > 20 |
| OCC[C@H](NCc1ccnc(-c2ccc(C(F)(F)F)cc2)n1)c1ccccc1 [Example 163, (3S)-3-phenyl-3-[({2-[4-(trifluoromethyl)phenyl]pyrimidin-4-yl}methyl)amino]propan-1-ol] | > 20 |
| OC(CCNCc1ccnc(-c2ccc(C(F)(F)F)cc2)n1)c1ccccc1 (stereo not drawn) [Example 164, 1-phenyl-3-[({2-[4-(trifluoromethyl)phenyl]pyrimidin-4-yl}methyl)amino]propan-1-ol] | > 20 |
| O[C@H]1CCCC[C@@H]1CNCc1ccnc(-c2ccc(C(F)(F)F)cc2)n1 [Example 165, (1S,2R)-2-{[({2-[4-(trifluoromethyl)phenyl]pyrimidin-4-yl}methyl)amino]methyl}cyclohexanol] | > 20 |
| O[C@@H]1CCCC[C@@H]1CNCc1ccnc(-c2ccc(C(F)(F)F)cc2)n1 [Example 166, (1R,2R)-2-{[({2-[4-(trifluoromethyl)phenyl]pyrimidin-4-yl}methyl)amino]methyl}cyclohexanol] | > 20 |
| OC[C@H]1CCCC[C@@H]1NCc1ccnc(-c2ccc(C(F)(F)F)cc2)n1 [Example 167, {(1S,2S)-2-[({2-[4-(trifluoromethyl)phenyl]pyrimidin-4-yl}methyl)amino]cyclohexyl}methanol] | > 20 |
| OC[C@@H]1CCCC[C@@H]1NCc1ccnc(-c2ccc(C(F)(F)F)cc2)n1 [Example 168, {(1R,2S)-2-[({2-[4-(trifluoromethyl)phenyl]pyrimidin-4-yl}methyl)amino]cyclohexyl}methanol] | > 20 |
| OC[C@@H]1[C@H]2CC[C@H](C2)[C@@H]1NCc1ccnc(-c2ccc(C(F)(F)F)cc2)n1 [Example 169, {(1S,2R,3S,4R)-3-[({2-[4-(trifluoromethyl)phenyl]pyrimidin-4-yl}methyl)amino]bicyclo[2.2.1]hept-2-yl]methanol] | > 20 |
| OC[C@H]1[C@H]2CC[C@H](C2)[C@H]1NCc1ccnc(-c2ccc(C(F)(F)F)cc2)n1 [Example 170, {(1S,2S,3R,4R)-3-[({2-[4-(trifluoromethyl)phenyl]pyrimidin-4-yl}methyl)amino]bicyclo[2.2.1]hept-2-yl]methanol] | 6.16 |
